{
  "source": "patent US20240116875A1",
  "about": "“RATIONAL DESIGN, OPTIMIZATION, AND BIOLOGICAL EVALUATION OF NOVEL MEK4 INHIBITORS AGAINST PANCREATIC ADENOCARCINOMA” (NORTHWESTERN UNIVERSITY, priority 2022, published 2024)",
  "key": {"97 kinases": {"system": "97 kinases", "assay": "scanEDGE DiscoverX kinome-wide scan", "format": "binding", "details": "10 μM", "description": "(§1) To compare our compounds to the rest of the MEK inhibitors discovered thus far, we turned to the DiscoverX platform (KINOMEscan®, Eurofins DiscoverX), a widely used assay for comparing selectivity across the kinome. The DiscoverX platform reports the thermodynamic Kd in order to facilitate direct comparison of inhibitor affinity across the kinome, independent of ATP concentration."}, "ERK1": {"target": "T1, ERK1 (Homo sapiens, UniProt P27361)", "T1 construct": "purchased Eurofins DiscoverX scanEDGE", "T1 sequence (P27361 whole entry)": "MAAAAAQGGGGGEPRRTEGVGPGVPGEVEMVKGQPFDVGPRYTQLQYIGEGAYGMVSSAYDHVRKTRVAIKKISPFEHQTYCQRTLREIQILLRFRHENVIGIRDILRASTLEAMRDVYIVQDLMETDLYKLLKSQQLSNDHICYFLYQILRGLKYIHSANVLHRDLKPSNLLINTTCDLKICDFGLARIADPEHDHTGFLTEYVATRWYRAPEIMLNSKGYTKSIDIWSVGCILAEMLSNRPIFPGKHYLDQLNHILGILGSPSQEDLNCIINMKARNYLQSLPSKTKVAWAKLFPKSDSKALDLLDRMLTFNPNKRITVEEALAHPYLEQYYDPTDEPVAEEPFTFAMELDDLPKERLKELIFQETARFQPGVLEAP", "assay": "scanEDGE DiscoverX kinome-wide scan, ERK1", "format": "binding", "details": "10 μM", "description": "as §1"}, "BRAF": {"target": "T2, BRAF (Homo sapiens, UniProt P15056)", "T2 construct": "purchased Eurofins DiscoverX scanEDGE", "T2 sequence (P15056 whole entry)": "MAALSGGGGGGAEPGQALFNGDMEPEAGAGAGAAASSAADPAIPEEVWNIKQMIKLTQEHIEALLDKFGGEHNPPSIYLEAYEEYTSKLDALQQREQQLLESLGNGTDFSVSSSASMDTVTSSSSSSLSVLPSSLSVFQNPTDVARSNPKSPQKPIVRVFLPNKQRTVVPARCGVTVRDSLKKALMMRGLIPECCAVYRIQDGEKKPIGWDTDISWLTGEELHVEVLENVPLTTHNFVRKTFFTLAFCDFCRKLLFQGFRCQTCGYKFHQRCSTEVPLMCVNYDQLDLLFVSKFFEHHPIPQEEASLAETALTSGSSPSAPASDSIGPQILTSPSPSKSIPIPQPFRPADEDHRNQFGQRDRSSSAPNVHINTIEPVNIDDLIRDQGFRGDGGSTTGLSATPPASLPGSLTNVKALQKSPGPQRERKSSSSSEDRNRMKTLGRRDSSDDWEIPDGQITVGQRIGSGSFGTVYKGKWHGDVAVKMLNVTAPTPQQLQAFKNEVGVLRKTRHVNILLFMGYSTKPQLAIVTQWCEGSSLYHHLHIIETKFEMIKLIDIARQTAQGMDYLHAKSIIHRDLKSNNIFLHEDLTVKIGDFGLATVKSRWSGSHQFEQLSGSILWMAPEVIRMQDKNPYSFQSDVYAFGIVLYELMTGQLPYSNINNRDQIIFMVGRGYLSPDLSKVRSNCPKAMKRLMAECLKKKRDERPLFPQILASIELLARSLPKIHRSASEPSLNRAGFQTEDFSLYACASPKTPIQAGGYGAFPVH", "assay": "scanEDGE DiscoverX kinome-wide scan, BRAF", "format": "binding", "details": "10 μM", "description": "as §1"}, "RAF": {"target": "T3, RAF (Homo sapiens, UniProt P04049)", "T3 construct": "purchased Eurofins DiscoverX scanEDGE", "T3 sequence (P04049 whole entry)": "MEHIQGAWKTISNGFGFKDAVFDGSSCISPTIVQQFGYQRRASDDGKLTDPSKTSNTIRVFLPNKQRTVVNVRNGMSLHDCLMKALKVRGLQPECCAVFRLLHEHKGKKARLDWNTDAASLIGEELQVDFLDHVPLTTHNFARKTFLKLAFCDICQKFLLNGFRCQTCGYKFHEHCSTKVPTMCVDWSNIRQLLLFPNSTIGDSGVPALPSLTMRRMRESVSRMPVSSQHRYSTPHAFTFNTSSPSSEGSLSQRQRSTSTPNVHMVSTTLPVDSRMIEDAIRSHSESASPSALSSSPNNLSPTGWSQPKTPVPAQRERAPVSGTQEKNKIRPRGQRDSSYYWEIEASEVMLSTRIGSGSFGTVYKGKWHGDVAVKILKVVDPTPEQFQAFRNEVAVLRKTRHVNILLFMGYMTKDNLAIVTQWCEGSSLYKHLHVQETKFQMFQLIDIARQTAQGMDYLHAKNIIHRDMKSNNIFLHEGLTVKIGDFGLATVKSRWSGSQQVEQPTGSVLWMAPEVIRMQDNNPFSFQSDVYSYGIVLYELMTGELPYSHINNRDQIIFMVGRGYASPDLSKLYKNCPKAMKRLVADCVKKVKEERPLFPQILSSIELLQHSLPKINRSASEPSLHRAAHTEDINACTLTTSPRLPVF", "assay": "scanEDGE DiscoverX kinome-wide scan, RAF", "format": "binding", "details": "10 μM", "description": "as §1"}, "[1]": {"assay": "Log D study (BioDuro-Sundia)", "details": "pH of 7.4"}, "in vitro": {"assay": "in vitro", "details": "microsomes"}, "[2]": {"assay": "PAMPA assay (BioDuro-Sundia)", "format": "in vitro ADME"}, "Caco-2": {"system": "Caco-2", "assay": "Caco-2 permeability assay", "format": "in vitro ADME"}, "[3]": {"system": "JNK phosphorylation in CD18 cells", "assay": "anisomycin-induced JNK phosphorylation, western blotting, CD18", "format": "cell-based, human", "details": "CD18, anisomycin 45 minutes then compound 5 hours", "description": "(§2) HSP90 was used as loading control. The blots are representative of at least three biological replicates.\n(§3) We also examined the effects of these inhibitors on JNK phosphorylation and proliferation of two pancreatic cancer cell lines (CD18 and MiaPaCa2).\n(§4) Human pancreatic cancer cell lines (CD18/HPAF-II and MiaPaCa2) and HEK293T cells were obtained from American Type Culture Collection. All cell lines were cultured according to the manufacturer's protocol. All media contained 10% Fetal Bovine Serum (FBS) and antibiotics (100 U/mL Penicillin and 100 μg/mL Streptomycin).\n(§5) Whole cell extracts of cultured cells were prepared in radioimmunoprecipitation (RIPA) lysis buffer supplemented with phosphatase and protease inhibitors (Calbiochem). Protein concentration was determined by the bicinchoninic acid assay (BCA) (ThermoFisher) and separated by the SDS-PAGE technique. […] Secondary anti-mouse IgG (A4416) and anti-rabbit IgG (A6667) antibodies were purchased from Sigma-Aldrich and used a 1:4000 dilution. Images of blots were acquired on HyBlot ES Autoradiography Film (Thomas Scientific, Swedesboro, NJ, USA) following incubation with SuperSignal West Pico PLUS (ThermoFisher)."}, "HEK293T cells": {"system": "HEK293T cells", "assay": "cell proliferation (cell count after 72 hours), HEK293T", "format": "cell-based, human", "details": "varying doses", "description": "After 72 hours, cells were trypsinized, counted, and the cell numbers were normalized against the DMSO treatment. Mean±SD. Graphs are representative of 3 biological replicates. One-way ANOVA; ns, non-significant **, p<0.01 ***, p<0.001.\nas §3, §4"}, "CD18 cells": {"system": "CD18 cells", "assay": "cell proliferation (cell count after 72 hours), CD18", "format": "cell-based, human", "details": "CD18, 72 hours, varying doses, single agent", "description": "(§6) After 72 hours, cells were trypsinized, counted, and the cell numbers were normalized against the DMSO treatment. Mean±SD. Graphs are representative of 3 biological replicates.\nas §6\n(§7) Cell numbers from different treatments were normalized against the DMSO treatment, and CDI is calculated as follows: CDI=AB/(A×B), with AB being the ratio of the combination groups to control group and A or B being the ratio of the single agent group to the DMSO group. Mean±SEM from 3 biological replicates.\nas §3, §4"}, "MiaPaCa2 cells": {"system": "MiaPaCa2 cells", "assay": "cell proliferation (cell count after 72 hours), MiaPaCa2", "format": "cell-based, human", "details": "MiaPaCa2, 72 hours, varying doses, single agent", "description": "as §6, §6, §7, §3, §4"}, "[4]": {"system": "phospho-p42/44 MAPK in HEK293T cells", "assay": "p42/44 MAPK (ERK1/2) phosphorylation, western blotting, HEK293T", "format": "cell-based, human", "details": "anisomycin pretreatment, compound 100 μM, 5 hours", "description": "as §2\nWe next evaluated the effects of our inhibitors on the phosphorylation activity and expression of MEK1/2, MEK3/6, and MEK7. […] We also evaluated the effects on p42/44 MAPK (ERK1/2), which functions downstream of MEK1/2.\nas §5"}, "[5]": {"system": "phospho-p42/44 MAPK in CD18 cells", "assay": "p42/44 MAPK phosphorylation, western blotting, CD18", "format": "cell-based, human", "details": "CD18, MEK4 inhibitor 10 μM, 5 hours", "description": "(§8) The effects of different treatments on phospho-p42/44 MAPK and total p42/44 MAPK expression levels were determined by western blotting. HSP90 was used as loading control. The blots are representative of at least three biological replicates.\nas §5"}, "[6]": {"system": "phospho-p42/44 MAPK in MiaPaCa2 cells", "assay": "p42/44 MAPK phosphorylation, western blotting, MiaPaCa2", "format": "cell-based, human", "details": "MiaPaCa2, MEK4 inhibitor 10 μM, 5 hours", "description": "as §8, §5"}, "CYP 1A2": {"target": "CYP 1A2 (Homo sapiens, UniProt P05177)", "sequence (P05177 whole entry)": "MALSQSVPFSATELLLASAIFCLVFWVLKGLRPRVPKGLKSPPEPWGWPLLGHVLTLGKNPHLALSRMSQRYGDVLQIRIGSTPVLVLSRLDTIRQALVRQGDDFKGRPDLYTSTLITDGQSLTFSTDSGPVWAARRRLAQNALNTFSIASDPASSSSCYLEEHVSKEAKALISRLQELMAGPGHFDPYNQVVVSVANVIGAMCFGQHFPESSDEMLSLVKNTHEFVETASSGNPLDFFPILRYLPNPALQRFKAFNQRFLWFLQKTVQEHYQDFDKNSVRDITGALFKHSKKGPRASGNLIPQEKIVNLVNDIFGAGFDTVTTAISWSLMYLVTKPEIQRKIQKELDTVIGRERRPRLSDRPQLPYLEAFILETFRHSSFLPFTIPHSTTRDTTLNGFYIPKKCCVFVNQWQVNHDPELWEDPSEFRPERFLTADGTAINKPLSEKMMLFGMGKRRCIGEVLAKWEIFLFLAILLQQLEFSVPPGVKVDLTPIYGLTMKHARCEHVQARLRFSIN"}, "CYP 2C19": {"target": "CYP 2C19 (Homo sapiens, UniProt P33261)", "sequence (P33261 whole entry)": "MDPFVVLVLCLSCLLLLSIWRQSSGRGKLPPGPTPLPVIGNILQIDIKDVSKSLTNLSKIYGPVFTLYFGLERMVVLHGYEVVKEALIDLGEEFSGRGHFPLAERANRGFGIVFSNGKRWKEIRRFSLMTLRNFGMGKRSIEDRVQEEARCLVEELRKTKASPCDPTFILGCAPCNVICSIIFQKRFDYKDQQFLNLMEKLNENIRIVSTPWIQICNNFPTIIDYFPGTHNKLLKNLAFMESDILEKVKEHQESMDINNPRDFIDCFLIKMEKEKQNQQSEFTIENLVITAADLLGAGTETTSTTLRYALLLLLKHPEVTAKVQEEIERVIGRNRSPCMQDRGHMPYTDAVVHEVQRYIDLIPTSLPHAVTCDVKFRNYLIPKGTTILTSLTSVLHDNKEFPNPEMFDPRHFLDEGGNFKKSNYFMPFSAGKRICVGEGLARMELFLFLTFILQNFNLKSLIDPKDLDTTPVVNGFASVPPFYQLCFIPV", "assay": "CYP inhibition, 2C19"}, "CYP isoforms 3A4/5": {"system": "CYP isoforms 3A4/5", "assay": "CYP inhibition, 3A4/5"}},
  "note": "“Also recorded” adds a separate entry of the source.",
  "data": [
    {"smiles": "NC(=O)c1ccc(NS(=O)(=O)c2cccc(-c3n[nH]c4cc(F)ccc34)c2)cc1", "note": "[Compound 15o, 4-((3-(6-fluoro-1H-indazol-3-yl)phenyl)sulfonamido)benzamide]", "values": [
      {"measurement": "number of kinases hit at 80% or higher inhibition, out of 97 kinases", "setting": "97 kinases", "result": 28},
      {"measurement": "inhibition of ERK1", "setting": "ERK1", "result": "did not inhibit"},
      {"measurement": "inhibition of BRAF", "setting": "BRAF", "result": "did not inhibit"},
      {"measurement": "inhibition of RAF", "setting": "RAF", "result": "did not inhibit"},
      {"measurement": "log D", "setting": "[1]", "result": 3.22},
      {"measurement": "half-life", "setting": "in vitro", "result": "> 3.08", "unit": "h"},
      {"measurement": "stability in the microsome assay", "setting": "in vitro", "result": "good stability"},
      {"measurement": "permeability in the PAMPA assay", "setting": "[2]", "result": "low permeability"},
      {"measurement": "Caco-2 permeability", "setting": "Caco-2", "result": "medium to high permeability"},
      {"measurement": "Pgp substrate", "setting": "Caco-2; Caco-2 permeability assay", "result": "likely to be a Pgp substrate"},
      {"measurement": "effect on anisomycin-induced JNK phosphorylation", "setting": "[3]", "result": "attenuated anisomycin-induced JNK phosphorylation"},
      {"measurement": "cell proliferation", "setting": "HEK293T cells", "result": "decreased. HEK293T cell proliferation in a dose-dependent manner"},
      {"measurement": "cell proliferation", "setting": "CD18 cells", "result": "decreased proliferation; also recorded: antiproliferative properties"},
      {"measurement": "cell proliferation", "setting": "MiaPaCa2 cells", "result": "decreased proliferation; also recorded: antiproliferative properties"},
      {"measurement": "effect on p42/44 MAPK phosphorylation after anisomycin", "setting": "[4]", "result": "reversed the effects of anisomycin"},
      {"measurement": "effect on p42/44 MAPK phosphorylation", "setting": "[5]", "result": "increased p42/44 MAPK phosphorylation"},
      {"measurement": "effect on p42/44 MAPK phosphorylation", "setting": "[6]", "result": "did not induce p42/44 MAPK phosphorylation"},
      {"measurement": "inhibition of CYP 1A2", "setting": "CYP 1A2", "result": "inhibited"},
      {"measurement": "inhibition of CYP 2C19", "setting": "CYP 2C19", "result": "inhibited"},
      {"measurement": "inhibition of CYP isoforms 3A4/5", "setting": "CYP isoforms 3A4/5", "result": "did not inhibit"}
    ]}
  ]
}
